According to US20250387388A1, “COMPOUND AS TRK INHIBITOR AND/OR RET INHIBITOR AND USE THEREOF” (Medinno Pharmaceutical Technology (Zhuhai) Co., Ltd., priority 2022, published 2025):

System: allergic rhinitis model in mice
Test: Allergic rhinitis model in mice (OVA)
Type: in vivo, BALB/C mice
Details: nasal drops twice a day, 7-day treatment; MDI-1233 10 mg/kg, MDI-1228 3 mg/kg, MDI-1288 3 mg/kg; fluticasone propionate positive control
Method: 42-49 day-old BALB/C mice (Manufacturer: Liaoning Changsheng Biotechnology Co., Ltd., License Number: SCXK(therapeutic)2015-0001), both male and female, were reared under conventional diet, at a temperature of 20 to 26° C., and a humidity of 40% to 70%. Animal grouping and modeling: • 1. Blank control group (no treatment) • 2. Allergic rhinitis group (vehicle treatment: saline containing 0.2% Tween 80) • 3. Allergic rhinitis+compound MDI-1233: 1 mg/kg • 4. Allergic rhinitis+compound MDI-1233: 3 mg/kg • 5. Allergic rhinitis+compound MDI-1233: 10 mg/kg • 6. Allergic rhinitis+compound MDI-1228: 3 mg/kg • 7. Allergic rhinitis+compound MDI-1288: 3 mg/kg • 8. Allergic rhinitis+positive control group (Fluticasone propionate, GlaxoSmithKline, E88D
The preparation of an AR model in mice involved sensitizing and challenging BALB/c mice with ovalbumin (OVA) to simulate an acute symptoms caused by natural exposure to an allergen. The experimental animals were weighed and separated by gender. Sensitization was performed on days 1, 5, 9, and 12. From day 13, a daily challenge was carried out for 7 consecutive days. After the last challenge, behavior of the mice was observed and scored. The sensitization method involved intraperitoneal injection of an OVA (Sigma, A5503-1G) suspension in 50 μg/ml in which the OVA suspension was prepared by dissolving 500 μg of ovalbumin and 50 mg of AL(OH)3 (CAS 21645-51-2) into 10 ml of normal saline, pH 7.4, with 200 μl injected per mouse. […] On day 12, a single nasal challenge with 10% OVA was performed (PBS was used for the control group). Scoring was conducted according to the table below, using a superposition method to calculate the total score. A total score greater than 5 was considered as successful. Subsequent experiments were conducted after the modeling was deemed successful.
From day 13, compound administration and challenge were conducted. The compound administration method involved calculating the nasal drops volume according to the mouse's body weight and group requirements, and dissolving the compounds MDI-1233, MDI-1228, MDI-1288 into normal saline containing 0.2% Tween 80 at specific concentrations. The administration was given 30 minutes before the challenge, twice a day. The positive control treatment involved administering nasal drop once (10 μl per side) 30 minutes before OVA nasal stimulation, twice a day. Thirty minutes after the second drug administration, a 10% OVA challenge was conducted, and the amount of nasal discharge, sneezing, and nose scratching were observed and recorded within 30 minutes after each challenge and then scored. The control group was treated with normal saline nasal drops.
After the rhinitis modeling was completed and the scores were stable, mice of each group were anesthetized and sacrificed after a 20-day scoring. Samples were collected, and peripheral serum was obtained by collecting whole blood, and standing it at room temperature for 1 hour and then centrifuging it to collect the supernatant for ELISA detection; nasal mucosa was taken for HE staining (fixed with 10% formalin); and the supernatant of nasal lavage fluid was taken for ELISA detection.
(1) HE Staining: The tissue was rinsed with running water for several hours, dehydrated through a series of ethanol solutions (70%, 80%, 90%), and then treated with a mixture of pure alcohol and xylene for 15 minutes, followed by xylene I for 15 minutes and xylene I1 for 15 minutes (until transparent). The tissue was then placed in a mixture of xylene and paraffin at a volume ratio of 1:1 for 15 minutes, followed by immersion with paraffin I and paraffin II each for 50-60 minutes. The tissue was embedded in paraffin and sectioned, and the sections were spreaded, dried, dewaxed and hydrated in distilled water. […]

Compound	Rhinitis behavioral scoring
CCc1cc(O)c(F)cc1-c1ccc2c(-c3nc4c([nH]3)CN(C(=O)N3CC[C@H](O)C3)C4)n[nH]c2c1 [MDI-1228, (S)-(2-(6-(2-ethyl-5-fluoro-4-hydroxyphenyl)-1H-indazol-3-yl)-4,6-dihydropyrrolo[3,4-d]imidazol-5-(1H)-yl)(3-hydroxylpyrrolidin-1-yl)ketone]	did not significantly inhibit the allergic response in male mice
CCc1cc(O)c(F)cc1-c1ccc2c(-c3nc4c([nH]3)CN(C(=O)NCC(O)CCl)C4)n[nH]c2c1 (centres unmarked) [MDI-1288]	showed inhibitory effects on both male and female mouse rhinitis models
